What was measured:
[1] = Thermal stability (decarboxylation); format: physicochemical; details: saturated solution of CBDA in Met10u
Protocol: A saturated solution of CBDA in Met10u is prepared at 30C or preferably at 60C or higher, up to 100C or higher but below 130C. At a temperatures that is at least 130C, CBDA begins to lose its carboxylic moiety (decarboxylation) and become CBD. At temperatures above 130C CBD, not CBDA, could be separated if the desired end product is CBD.

[2] = Solubility in high-KB amide surfactant (DMDA / Met10u)
Description: (§1) Another example of a processing step is a step of combining a liquid that contains target compound with anti-solvent. When a target compound is contained in a liquid, e.g., an organic solvent or water (together, “solvents”), an anti-solvent may be used to reduce the capacity of the solvent to contain the target compound, thereby supersaturating the solvent with the target compound. […] The use of an antisolvent can increase the efficiency of purification of a target compound by increasing the saturation of one or more target compounds in a solvent to which the target compounds are added or present. The antisolvent occupies the binding potential of a primary solvent for a target compound, thereby reducing the ability of the primary solvent to contain (e.g., dissolve) the target compound.
As an alternative to an “oiling-out” technique followed by a crystallization step, target compound dissolved in an aqueous solution (at high temperature and alkaline pH) can be separated from the aqueous solution by causing the target compound to directly form a separate solid phase such as crystals within the solution, i.e., to “crystallize out” of the solution, without an “oiling-out” step. Depending on the composition of the aqueous solution, e.g., if the aqueous solution contains a sufficiently high concentration and purity of dissolved target compound, the target compound may be caused to form crystals directly by reducing pH and temperature of the aqueous solution. […] A method as described may include adding surfactant (e.g., ninol CAA) or an oil or a solvent or additive that encourages crystallization or alternatively, oiling out.

Solubility in water = format: physicochemical
Description: The solubility of cannabinoid target compounds in water can be substantially affected by pH and by temperature. […] At a temperature of 70 degrees Celsius or higher, and pH of 10 or higher, the solubility of CBDA in water is over 20 milligrams per milliliter. Conversely, at a temperature of 4 degrees Celsius or lower and pH 4 of or lower, the solubility of CBDA in water is below 20 micrograms per milliliter. Consequently, a process of washing a plant extract composition that contains CBDA with acidified water having a low temperature can be effective to remove hydrophilic components from the plant extract composition, without removing much CBDA from the plant extract composition.

[3] = Solubility in mineral oil; details: under certain conditions
Description: as §1

Compound	temperature at which CBDA begins to lose its carboxylic moiety (decarboxylation) and become CBD [1]	solubility of CBDA in Met10u ([2]; at 60C)	solubility in DMDA ([2]; at 70C)	solubility of CBDA in Met10u ([2]; at OC)	solubility of CBDA in water (Solubility in water; temperature of 4 degrees Celsius or lower, pH 4 or lower)	solubility of CBDA in water (Solubility in water; temperature of 70 degrees Celsius or higher, pH of 10 or higher)	solubility in mineral oil [3]	fraction of dissolved water in the high KB surfactant ([2]; water dissolved in surfactant of plant extract composition)
C=C(C)[C@@H]1CCC(C)=C[C@H]1c1c(O)cc(CCCCC)c(C(=O)O)c1O [CBDA]	at least 130 C	100%	over 1000 mg/ml	1%	below 20 micrograms per milliliter	over 20 milligrams per milliliter	about 6 mg/ml	–
C=CCCCCCCCC(=O)N(C)C [STEPOSOL™ MET-10U, N, N-dimethyl 9-decenamide]	–	–	–	–	–	–	–	15%

Reference: US12415145B2, “Compositions that contain lipophilic plant material and surfactant, and related methods” (priority 2019, dated 2025)
